One test deals with MMP-13 (Homo sapiens, UniProt P45452). As to the kind of experiment: In-vitro fluorescence assay of MMP-13 activity. The test is classed as biochemical. As to the method: See Knight, C. […] […].
The method was essentially the same as for the determination of MMP-1 activity, described above, except that the final concentration of purified MMP in the assay was 0.5 nM, prepared by diluting with the assay buffer.

Another test concerns the target T1, recombinant human MMP-2 (Homo sapiens, UniProt P08253).
T1 sequence (P08253 110-660): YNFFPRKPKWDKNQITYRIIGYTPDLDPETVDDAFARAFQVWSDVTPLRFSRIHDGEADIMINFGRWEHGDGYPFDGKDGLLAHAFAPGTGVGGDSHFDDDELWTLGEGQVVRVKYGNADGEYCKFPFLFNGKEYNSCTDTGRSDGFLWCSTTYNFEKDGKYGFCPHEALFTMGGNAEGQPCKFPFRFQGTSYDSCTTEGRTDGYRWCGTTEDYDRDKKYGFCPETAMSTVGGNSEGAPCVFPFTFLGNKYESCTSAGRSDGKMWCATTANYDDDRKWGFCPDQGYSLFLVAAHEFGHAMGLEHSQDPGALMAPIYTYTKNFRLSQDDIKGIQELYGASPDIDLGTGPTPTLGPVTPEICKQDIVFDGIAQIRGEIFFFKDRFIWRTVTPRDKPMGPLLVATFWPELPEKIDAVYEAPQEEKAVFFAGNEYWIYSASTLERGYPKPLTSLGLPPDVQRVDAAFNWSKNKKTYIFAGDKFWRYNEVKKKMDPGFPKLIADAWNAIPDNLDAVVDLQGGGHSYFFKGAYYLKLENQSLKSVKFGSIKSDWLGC
In words: In-vitro fluorescence assay of MMP-2 activity. It counts as biochemical.

In test [1] the test system is TNF-α secretion in Raw 264.7 cells. In words: Cell-based assay for inhibition of TNF-α secretion in Raw cells. The following applies: Mus musculus, RAW264.7, LPS 100 ng/ml, 4 hr. As to the method:
The basic measurement of the assay is the percentage of inhibition of TNF-α secretion and the IC50 determination by a fitting with the model-39 of LSW data analysis tool. […] Cells are split twice a week by scraping and 1 to 10 or 20 dilutions. For testing compounds, cells are cultured to confluence and are seeded the day before the experiment in 24 well culture dishes at 0.5 to 1 million/ml well. On the next morning, the medium from the overnight culture is replaced with the fresh growth medium. The compounds are added at various concentration at the 0.2% of final DMSO concentrations (10 μl of a 20% DMSO solution containing testing compounds is added to each well). The cells are pre-incubated with compounds for 1 hr. LPS (Sigma, L2262) is added to cells at a final concentration of 100 ng/ml (10 μl of a […] LPS solution freshly diluted from a 1 mg/ml LPS stock solution in PBS is added to each well) and cells are further incubated for 4 hr at 37° C. 1 ml of the supernatant was collected, cells are spun down and the supernatants are frozen at −80° C. until use. The TNF-α and other proinflammatory cytokines were detected by an ELISA assay according to the manufacturer's instructions (Biosource International, Inc., Camarillo, Calif. (For IL-1b measurement in Raw cells, one round of freeze and thaw of the cells was required).

The target of test [2] is T2, TACE (catalytic domain of the recombinant TACE protein) (Homo sapiens, UniProt P78536).
T2 construct: The catalytic domain of the recombinant TACE protein was expressed and purified; made in house
T2 sequence (P78536 223-474 limits assumed): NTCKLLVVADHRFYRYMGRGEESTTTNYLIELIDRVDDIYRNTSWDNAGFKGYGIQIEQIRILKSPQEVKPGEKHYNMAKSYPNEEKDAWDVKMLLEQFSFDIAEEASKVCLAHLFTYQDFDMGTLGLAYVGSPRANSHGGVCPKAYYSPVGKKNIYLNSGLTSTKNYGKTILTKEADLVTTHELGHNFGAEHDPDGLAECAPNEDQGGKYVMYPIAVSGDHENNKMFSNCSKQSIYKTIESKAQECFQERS
In words: TACE FRET assay using TACE Cat. The test is classed as biochemical. To be noted: FRET, pro-TNF-α substrate peptide; read-out: TACE IC50. The procedure:
The procedure is essentially as described in Jin, G. et al., Analytical Biochemistry (2002) 302, 269-275, incorporated by reference herein in its entirety. […] K is the IC50. Generally, n and B are floated, noting that n (hill slope) should be close to 1 and B (background offset) to 0.
Pro-TNF-α substrate peptide Abz-[…]-Dpa (AnaSpec, San Jose, Calif., WARC-1) was prepared as a 2 mM stock solution in the TACE assay buffer (50 mM Tris-HCI, pH 7.4, 25 mM NaCl, 4% Glycerol, 0.005% Brij 35). The catalytic domain of the recombinant TACE protein was expressed and purified. The TACE protein (1 ug/ml) was pretreated with the inhibitors at various concentrations for 10 min at room temperature. The reaction was initiated by the addition of the substrate peptide. The increase in fluorescence was monitored at an Excitation of 320 nm and an Emission of 420 nm over a period of 10 min. The initial rate (slope) of the reaction was determined using a fluorescence plate reader (Molecular Devices, Spectra Max Gemini XS).

Test [3] has as its system LPS-induced TNF-α secretion in human whole blood. In words: Human whole blood assay for LPS-induced TNF-α secretion. The test is classed as cell-based. To be noted: Homo sapiens, LPS 100 ng/ml, read-out: TNF Secretion HWB IC50. As to the method: procedure is essentially as described in Newton, R. C., et al., (2001) Ann Rheum […]32, incorporated by reference herein in its entirety. The basic measurement of the assay is the percentage of inhibition of TNF-α secretion and the IC50 determination by a […] model-39 of LSW data analysis tool. 350 μl of fresh human blood drawn from healthy volunteers were pre-incubated with compounds for one hour at the various concentrations at 37° C. with turning generally, the final DMSO concentrations should be kept below 0.2%. At the end of cubation, LPS (Sigma, L2262) was added to the blood at 100 ng/ml and the samples were further incubated for 4 hours or overnight at 37° C. with constant rotation. At the end of the incubation period, 650 μl of serum-free medium was added to the blood samples and the samples were centrifuged at 1500 rpm for 15 minutes. 500 μl of supernate was collected and frozen at -80° C. The TNF-α and other proinflammatory cytokines were detected by ELISA assay according to the manufacturer's instruction (Biosource International, Inc., Camarillo, Calif.).

What is called IC50 is the concentration needed to halve the response being measured.

Procedure for recombinant human MMP-2: A continuous assay was used in which the substrate is a synthetic peptide containing a fluorescent group (7-methoxycoumarin; Mca) that is quenched by energy transfer to a 2,4-dinitrophenyl group. […] The substrate used was Mca-PQGL-(3-[2,4-dinitrophenyl]-L-2,3-diaminopropionyl)-AR-OH (denoted as Wammp-5, custom synthesized by AnaSpec, Inc.). The assay buffer consisted of 50 mM Hepes (pH 7.4), 100 mM NaCl, 5 mM CaCI2, and 0.005% Brij-35. Each well of black polystyrene 96-well plates contained a 200 μL reaction mixture consisting of assay buffer, purified MMP (final concentration of 25 ng/ml, prepared by diluting with the assay buffer), and varied concentrations of inhibitor (prepared by serially diluting a given inhibitor in DMSO in 96-well polypropylene plate). […] The enzymatic reactions were initiated by adding the substrate to a final concentration of 20 μM, and mixing 10 times with a pipette. The final DMSO concentration in the assay was 6.0%.
Plots of the inhibitor concentration vs. the percent inhibition were fit to the following equation: y=(a−d)/[1+(x/c)^b]+d, a general sigmoidal curve with Hill slope, a to d. x is the inhibitor concentration under test. y is the percent inhibition. a is the limiting response as x approaches zero. As x increases without bound, y tends toward its limit d. c is the inflection point (IC50) for the curve. That is, y is halfway between the lower and upper asymptotes when x=c. b is the slope factor or Hill coefficient.

On to `Cc1cc(COc2ccc(S(=O)(=O)N[C@@H]3CCN(C(=O)OC(C)(C)C)CC3C(=O)NO)cc2)c2ccccc2n1` (mixture of isomers) [Example 28, tert-Butyl (3S,4R)-3-[(hydroxyamino)carbonyl]-4-[({4-[(2-methylquinolin-4-yl)methoxy]phenyl}sulfonyl)amino]piperidine-1-carboxylate], for which the IC50 at MMP-13 is 14.4 µM; on recombinant human MMP-2 it was above 16.7 µM; in test [1], 0.46 µM; in test [2], 0.0005 µM; in test [3], 0.8 µM.
For `CC(=O)N1CCC(NS(=O)(=O)c2ccc(OCc3cc(C)nc4ccccc34)cc2)C(C(=O)NO)C1` (mixture of isomers) [Example 31, 1-Acetyl-4-[4-(2-methyl-quinolin-4-ylmethoxy)-benzenesulfonylamino]-piperidine-3-carboxylic acid hydroxyamide], the half-maximal inhibitory concentration (IC50) is 6.63 µM at MMP-13; above 10 µM on recombinant human MMP-2; 0.02 µM in test [1]; 0.0009 µM in test [2]; 0.05 µM in test [3].
The matching figures for `Cc1cc(COc2ccc(S(=O)(=O)NC3CCN(CCO)CC3C(=O)NO)cc2)c2ccccc2n1` (mixture of isomers) [Example 32, 1-(2-Hydroxy-ethyl)-4-[4-(2-methyl-quinolin-4-ylmethoxy)-benzenesulfonylamino]-piperidine-3-carboxylic acid hydroxyamide]: above 10 µM, above 10 µM, 0.18 µM, 0.0032 µM and 1.9 µM.
As to `Cc1cc(COc2ccc(S(=O)(=O)N[C@]3(C)CCCC[C@@H]3C(=O)NO)cc2)c2ccccc2n1` (racemic) [Example 60, (1S,2R)-N-hydroxy-2-methyl-2-[({4-[(2-methylquinolin-4-yl)methoxy]phenyl}sulfonyl)amino]cyclohexanecarboxamide (racemic)], the half-inhibitory concentration (IC50) was above 16.7 µM against MMP-13; above 16.7 µM on recombinant human MMP-2; 0.025 µM in test [1]; below 0.0006 µM in test [2]; 4.9 µM in test [3].
Consider `Cc1cc(COc2ccc(S(=O)(=O)N(C)[C@@H]3[C@@H]4CC[C@@H](C4)[C@@H]3C(=O)NO)cc2)c2ccccc2n1` (relative stereo) [Example 5, endo-N-Hydroxy-3-[methyl({4-[(2-methylquinolin-4-yl)methoxy]phenyl}sulfonyl)amino]bicyclo[2.2.1]heptane-2-carboxamide], for which the 50% inhibitory concentration (IC50) against MMP-13 is above 16.7 µM; on recombinant human MMP-2, above 16.7 µM; in test [1], 0.052 µM; in test [2] it was 0.0011 µM; in test [3] it was 9.6 µM.
Consider `Cc1cc(COc2ccc(S(=O)(=O)N[C@@H]3CCC[C@@H]3C(=O)NO)cc2)c2ccccc2n1` (relative stereo) [Example 11, cis-N-Hydroxy-2-[({4-[(2-methylquinolin-4-yl)methoxy]phenyl}sulfonyl)amino]cyclopentanecarboxamide], for which the concentration for half-maximal inhibition (IC50) against MMP-13 is above 16.7 µM; on recombinant human MMP-2, above 16.7 µM; in test [1], 0.011 µM; in test [2] it was 0.0006 µM; in test [3] it was 0.74 µM.
As for `Cc1cc(COc2ccc(S(=O)(=O)N[C@@H]3CCCC[C@H]3C(=O)NO)cc2)c2ccccc2n1` (relative stereo) [Example 14, trans-N-Hydroxy-2-[({4-[(2-methylquinolin-4-yl)methoxy]phenyl}sulfonyl)amino]cyclohexanecarboxamide], the IC50 against MMP-13 was above 16.7 µM; on recombinant human MMP-2 it was above 16.7 µM; in test [1], 0.06 µM; in test [2] it was 0.0018 µM; in test [3], 4.5 µM.
Regarding `Cc1cc(COc2ccc(S(=O)(=O)N(C)[C@@H]3CC=CC[C@@H]3C(=O)NO)cc2)c2ccccc2n1` (relative stereo) [Example 15, cis-N-Hydroxy-6-[methyl({4-[(2-methylquinolin-4-yl)methoxy]phenyl}sulfonyl)amino]cyclohex-3-ene-1-carboxamide], the IC50 at MMP-13 is above 16.7 µM; at recombinant human MMP-2, above 16.7 µM; in test [1] it was above 1 µM; in test [2], 0.0026 µM; in test [3], above 50 µM.
Turning to `Cc1cc(COc2ccc(S(=O)(=O)N(C)[C@@H]3CCC[C@@H]3C(=O)NO)cc2)c2ccccc2n1` (relative stereo) [Example 16, cis-N-Hydroxy-2-[methyl({4-[(2-methylquinolin-4-yl)methoxy]phenyl}sulfonyl)amino]cyclopentanecarboxamide], the concentration for half-maximal inhibition (IC50) against MMP-13 is 13.7 µM; on recombinant human MMP-2, 9.74 µM; in test [1], 0.093 µM; in test [2] it was below 0.0006 µM; in test [3], 4.78 µM.
Regarding `C#CCN1C[C@H](C(=O)NO)[C@H](NS(=O)(=O)c2ccc(OCc3cc(C)nc4ccccc34)cc2)C1` (relative stereo) [Example 18, cis-N-Hydroxy-4-[({4-[(2-methylquinolin-4-yl)methoxy]phenyl}sulfonyl)amino]-1-prop-2-yn-1-ylpyrrolidine-3-carboxamide], the IC50 against MMP-13 is above 10 µM; at recombinant human MMP-2, above 10 µM; in test [1], 0.09 µM; in test [2], 0.0007 µM; in test [3] it was 1 µM.
Regarding `CC(=O)N1C[C@H](C(=O)NO)[C@H](NS(=O)(=O)c2ccc(OCc3cc(C)nc4ccccc34)cc2)C1` (relative stereo) [Example 19, cis-1-acetyl-N-Hydroxy-4-[({4-[(2-methylquinolin-4-yl)methoxy]phenyl}sulfonyl)amino]pyrrolidine-3-carboxamide], the half-maximal inhibitory concentration (IC50) is at least 10 µM against MMP-13; above 10 µM on recombinant human MMP-2; 0.02 µM in test [1]; below 0.0006 µM in test [2]; 0.2 µM in test [3].
`Cc1cc(COc2ccc(S(=O)(=O)N[C@@H]3CN(C(=O)OC(C)(C)C)C[C@@H]3C(=O)NO)cc2)c2ccccc2n1` (relative stereo) [Example 21, tert-Butyl cis-3-[(hydroxyamino)carbonyl]-4-[({4-[(2-methylquinolin-4-yl)methoxy]phenyl}sulfonyl)amino]pyrrolidine-1-carboxylate]: the IC50 was 4.89 µM at MMP-13; 8.8 µM on recombinant human MMP-2; 0.038 µM in test [1]; below 0.0006 µM in test [2]; 1.3 µM in test [3].
